Results reported in patent publication US10206394B2, “Herbicidal compounds” (Syngenta Participations AG, priority 2014, dated 2019).
Like-named read-outs stand apart in the source and are kept apart here.

Experiments:
Assay in all cases: Glasshouse assay for herbicidal activity (pre- and post-emergence), percentage phytotoxicity
Format in all cases: in vivo
[1] = system: Alopecurus myosuroides (ALOMY); details: Alopecurus myosuroides, Rate 250 g/ha, 100%=total damage, 0%=no damage
Protocol: (§1) Test—Glasshouse Assay for Herbicidal Activity
(§2) Seeds of a variety of monocotyledonous and dicotyledonous test plants are sown in standard soil in pots. The plants are cultivated for one day (for pre-emergence (PRE)) or for about 12 days (for post-emergence (POST)) under controlled conditions in a glasshouse (warm climate species at 24/18° C., cool climate species at 20/16° C., both at day/night; 16 hours light; 65% humidity).
(§3) The test plants are then grown on, in a glasshouse (greenhouse) under controlled conditions (warm climate species at 24/18° C., cool climate species at 20/16° C., both at day/night; 16 hours light; 65% humidity) and are watered twice daily. 15 days after application of the test herbicide (15 DAA) (for post-emergence), and 20 days after application of the test herbicide (20 DAA) (for pre-emergence), the test plants are evaluated visually, and an assessed percentage phytotoxicity score is given for each herbicidal application on each plant species (with 100%=total damage to plant; 0%=no damage to plant).
(§4) The plant species tested are as follows: Alopecurus myosuroides (ALOMY), Avena fatua (AVEFA), Lolium perenne (LOLPE), Echinochloa crus-galli (ECHCG).

Lolium perenne (LOLPE) = details: Lolium perenne, Rate 250 g/ha, 100%=total damage, 0%=no damage
Protocol: as §1, §2, §3, §4

Avena fatua (AVEFA) = details: Avena fatua, Rate 250 g/ha, 100%=total damage, 0%=no damage
Protocol: as §1, §2, §3, §4

[2] = system: Echinochloa crus-galli (ECHCG); details: Echinochloa crus-galli, Rate 250 g/ha, 100%=total damage, 0%=no damage
Protocol: as §1, §2, §3, §4

[3] = post-emergence, 360 h, post-emergence, assessed visually 15 DAA, read-out: Post-emergence herbicidal activity (percentage phytotoxicity) ALOMY POST
[4] = pre-emergence, 480 h, pre-emergence, assessed visually 20 DAA, read-out: Pre-emergence herbicidal activity (percentage phytotoxicity) ALOMY PRE
[5] = post-emergence, 360 h, post-emergence, assessed visually 15 DAA, read-out: Post-emergence herbicidal activity (percentage phytotoxicity) LOLPE POST
[6] = pre-emergence, 480 h, pre-emergence, assessed visually 20 DAA, read-out: Pre-emergence herbicidal activity (percentage phytotoxicity) LOLPE PRE
[7] = post-emergence, 360 h, post-emergence, assessed visually 15 DAA, read-out: Post-emergence herbicidal activity (percentage phytotoxicity) AVEFA POST
[8] = pre-emergence, 480 h, pre-emergence, assessed visually 20 DAA, read-out: Pre-emergence herbicidal activity (percentage phytotoxicity) AVEFA PRE
[9] = post-emergence, 360 h, post-emergence, assessed visually 15 DAA, read-out: Post-emergence herbicidal activity (percentage phytotoxicity) ECHCG POST
[10] = pre-emergence, 480 h, pre-emergence, assessed visually 20 DAA, read-out: Pre-emergence herbicidal activity (percentage phytotoxicity) ECHCG PRE

Row | Structure (SMILES) | pest or weed control at 250 g/ha [1, 3] [%] | pest or weed control at 250 g/ha [1, 4] [%] | pest or weed control at 250 g/ha (Lolium perenne (LOLPE); [5]) [%] | pest or weed control at 250 g/ha (Lolium perenne (LOLPE); [6]) [%] | pest or weed control at 250 g/ha (Avena fatua (AVEFA); [7]) [%] | pest or weed control at 250 g/ha (Avena fatua (AVEFA); [8]) [%] | pest or weed control at 250 g/ha [2, 9] [%] | pest or weed control at 250 g/ha [2, 10] [%]
1 | C=CCCNC(=O)CC1CC(=O)C(c2c(C)cc(C#CC)cc2C)C1=O (stereo not drawn) [Compound A57] | 100 | 100 | 100 | 100 | 100 | 90 | 100 | 100
2 | CC#Cc1cc(C)c(C2C(=O)CC(CC(=O)NCCC(F)(F)F)C2=O)c(C)c1 (stereo not drawn) [Compound A58] | 100 | 100 | 90 | 90 | 100 | 100 | 100 | 100
3 | CC#Cc1cc(C)c(C2C(=O)CC(CC(=O)NC(C)(C)CC)C2=O)c(C)c1 (stereo not drawn) [Compound A60] | 100 | 100 | 90 | 100 | 100 | 100 | 100 | 100
4 | CC#Cc1cc(C)c(C2C(=O)CC(CC(=O)N(C)CCC)C2=O)c(C)c1 (stereo not drawn) [Compound A61] | 100 | 100 | 90 | 100 | 100 | 90 | 100 | 100
5 | CC#Cc1cc(C)c(C2C(=O)CC(CC(=O)NC3CCCC3)C2=O)c(C)c1 (stereo not drawn) [Compound A62] | 90 | 100 | 60 | 100 | 90 | 90 | 100 | 100
6 | CC#Cc1cc(C)c(C2C(=O)CC(CC(=O)NCC3CC3)C2=O)c(C)c1 (stereo not drawn) [Compound A63] | 100 | 100 | 90 | 100 | 100 | 90 | 100 | 100
7 | C=CCOCC(C)(C)NC(=O)CC1CC(=O)C(c2c(C)cc(C#CC)cc2C)C1=O (stereo not drawn) [Compound A64] | 90 | 70 | 70 | 80 | 90 | 70 | 100 | 100
8 | CC#Cc1cc(C)c(C2C(=O)CC(CC(=O)NCC(C)(C)C)C2=O)c(C)c1 (stereo not drawn) [Compound A65] | 90 | 100 | 80 | 90 | 90 | 70 | 100 | 100
9 | CC#Cc1cc(C)c(C2C(=O)CC(CC(=O)NC3CC3)C2=O)c(CC)c1 (stereo not drawn) [Compound A66] | 90 | 100 | 100 | 100 | 100 | 100 | 100 | 100
